Patent US10227323B2, “Glucosylceramide synthase inhibitors for the treatment of diseases” (BIOMARIN PHARMACEUTICAL INC., priority 2013, dated 2019)

Each molecule was assayed against T1, GCS (Canis lupus familiaris, UniProt A0A8I3MXG6) (assay: Assay 1: GCS Enzymatic Assay (MDCK cell lysate, C6-NBD-Ceramide, LC/MS)). Conditions: Table 2; data marked by *.
T1 sequence (A0A8I3MXG6 1-394): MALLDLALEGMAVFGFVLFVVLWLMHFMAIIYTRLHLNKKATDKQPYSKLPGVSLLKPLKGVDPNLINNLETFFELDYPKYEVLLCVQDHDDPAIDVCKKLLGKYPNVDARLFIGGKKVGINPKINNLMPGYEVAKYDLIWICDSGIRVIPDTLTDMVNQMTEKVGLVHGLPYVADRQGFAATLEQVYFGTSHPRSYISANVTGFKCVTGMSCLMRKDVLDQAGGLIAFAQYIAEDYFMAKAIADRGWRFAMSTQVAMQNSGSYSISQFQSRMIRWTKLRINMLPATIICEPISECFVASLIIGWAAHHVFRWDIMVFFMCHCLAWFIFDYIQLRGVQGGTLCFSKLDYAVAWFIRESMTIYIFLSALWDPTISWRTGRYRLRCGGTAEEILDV
Type: biochemical, canine
Summary of the method: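 LC/MS/MS measurement of glucosylceramide and NBD-ceramide after a 1 h, 37 °C reaction with 100 μM UDP-glucose and 10 μM C6-NBD-ceramide gave IC50s or percent inhibition.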

SMILES | % inhibition generated from Assay 1
O=C(N[C@H](CN1CCCC1)[C@H](O)c1ccc2c(c1)OCCO2)C(=O)c1ccc(-c2ccc(F)cn2)cc1 [Compound 189, N-((1R,2R)-1-(2,3-dihydrobenzo[b][1,4]dioxin-6-yl)-1-hydroxy-3-(pyrrolidin-1-yl)propan-2-yl)-2-(4-(5-fluoropyridin-2-yl)phenyl)-2-oxoacetamide] | A* (the compound had a % inhibition of a percent inhibition of greater than or equal to about 50%)
O=C(N[C@H](CN1CCCC1)[C@H](O)c1ccc2c(c1)OCCO2)/C(=N/O)c1ccc(-c2ccc(F)cn2)cc1 [Compound 190, (E)-N-((1R,2R)-1-(2,3-dihydrobenzo[b][1,4]dioxin-6-yl)-1-hydroxy-3-(pyrrolidin-1-yl)propan-2-yl)-2-(4-(5-fluoropyridin-2-yl)phenyl)-2-(hydroxyimino)acetamide] | A* (the compound had a % inhibition of a percent inhibition of greater than or equal to about 50%)
CC(C)(O)COc1ccc([C@@H](O)[C@@H](CN2CCCC2)NC(=O)C(F)(F)C2Cc3ccc(Cl)cc3C2)cc1Cl (stereo partly drawn) [Compound 192, 2-(5-chloro-2,3-dihydro-1H-inden-2-yl)-N-((1R,2R)-1-(3-chloro-4-(2-hydroxy-2-methylpropoxy)phenyl)-1-hydroxy-3-(pyrrolidin-1-yl)propan-2-yl)-2,2-difluoroacetamide] | A* (the compound had a % inhibition of a percent inhibition of greater than or equal to about 50%)
O=C(N[C@H](CN1CCCC1)[C@H](O)c1ccc2c(c1)OCCO2)C(=O)c1ccc(-c2ccccn2)cc1 [Compound 195, N-((1R,2R)-1-(2,3-dihydrobenzo[b][1,4]dioxin-6-yl)-1-hydroxy-3-(pyrrolidin-1-yl)propan-2-yl)-2-oxo-2-(4-(pyridin-2-yl)phenyl)acetamide] | A* (the compound had a % inhibition of a percent inhibition of greater than or equal to about 50%)
O=C(N[C@H](CN1CCCC1)[C@H](O)c1cc(F)c2c(c1)OCCO2)C(F)(F)c1cn2ccccc2n1 [Compound 196, 2,2-difluoro-N-((1R,2R)-1-(8-fluoro-2,3-dihydrobenzo[b][1,4]dioxin-6-yl)-1-hydroxy-3-(pyrrolidin-1-yl)propan-2-yl)-2-(imidazo[1,2-a]pyridin-2-yl)acetamide] | B* (the compound had a % inhibition of greater than or equal to about 3% but less than about 50%)
CN1CCCc2cc(CCC(F)(F)C(=O)N[C@H](CN3CCCC3)[C@H](O)c3ccc4c(c3)OCCO4)ccc21 [Compound 198, N-((1R,2R)-1-(2,3-dihydrobenzo[b][1,4]dioxin-6-yl)-1-hydroxy-3-(pyrrolidin-1-yl)propan-2-yl)-2,2-difluoro-4-(1-methyl-1,2,3,4-tetrahydroquinolin-6-yl)butanamide] | A* (the compound had a % inhibition of a percent inhibition of greater than or equal to about 50%)
O=C(N[C@H](CN1CCCC1)[C@H](O)c1ccc(OC2CC2)c(Cl)c1)C(F)(F)c1cn2ccccc2n1 [Compound 199, N-((1R,2R)-1-(3-chloro-4-cyclopropoxyphenyl)-1-hydroxy-3-(pyrrolidin-1-yl)propan-2-yl)-2,2-difluoro-2-(imidazo[1,2-a]pyridin-2-yl)acetamide] | B* (the compound had a % inhibition of greater than or equal to about 3% but less than about 50%)
O=C(N[C@H](CN1CCCC1)[C@H](O)c1ccc2c(c1)OCCO2)C(F)(F)c1cccc(Oc2ccc(F)cc2)c1 [Compound 201, N-((1R,2R)-1-(2,3-dihydrobenzo[b][1,4]dioxin-6-yl)-1-hydroxy-3-(pyrrolidin-1-yl)propan-2-yl)-2,2-difluoro-2-(3-(4-fluorophenoxy)phenyl)acetamide] | A* (the compound had a % inhibition of a percent inhibition of greater than or equal to about 50%)
O=C(N[C@H](CN1CCCC1)[C@H](O)c1ccc(OC2CC2)c(Cl)c1)C(F)(F)c1cccc(Oc2ccc(F)cc2)c1 [Compound 206, N-((1R,2R)-1-(3-chloro-4-cyclopropoxyphenyl)-1-hydroxy-3-(pyrrolidin-1-yl)propan-2-yl)-2,2-difluoro-2-(3-(4-fluorophenoxy)phenyl)acetamide] | A* (the compound had a % inhibition of a percent inhibition of greater than or equal to about 50%)
O=C(N[C@H](CN1CCCC1)[C@H](O)c1ccc2c(c1)OCCO2)C(F)(F)c1csc(-c2ccc(F)cc2)n1 [Compound 211, N-((1R,2R)-1-(2,3-dihydrobenzo[b][1,4]dioxin-6-yl)-1-hydroxy-3-(pyrrolidin-1-yl)propan-2-yl)-2,2-difluoro-2-(2-(4-fluorophenyl)thiazol-4-yl)acetamide] | B* (the compound had a % inhibition of greater than or equal to about 3% but less than about 50%)

Same assay, conditions: Table 2; data without asterisk; read-out: IC50 (nM) generated from Assay 1

SMILES | IC50
O=C(N[C@H](CN1CCCC1)[C@H](O)c1cc(F)c2c(c1)OCCO2)C(=O)c1ccc(N2CCCCC2)cc1 [Compound 200, N-((2R)-1-(8-fluoro-2,3-dihydrobenzo[b][1,4]dioxin-6-yl)-1-hydroxy-3-(pyrrolidin-1-yl)propan-2-yl)-2-oxo-2-(4-(piperidin-1-yl)phenyl)acetamide] | < 50 nM
O=C(N[C@H](CN1CCCC1)[C@H](O)c1ccc(OC2CC2)c(F)c1)C(F)(F)c1ccc(-c2ccc(F)cc2)cc1 [Compound 204, N-((1R,2R)-1-(4-cyclopropoxy-3-fluorophenyl)-1-hydroxy-3-(pyrrolidin-1-yl)propan-2-yl)-2,2-difluoro-2-(4′-fluoro-[1,1′-biphenyl]-4-yl)acetamide] | < 50 nM
O=C(N[C@H](CN1CCCC1)[C@H](O)c1ccc(OC2CC2)c(F)c1)C(=O)c1ccc(-c2ccc(F)cc2)cc1 [Compound 208, N-((1R,2R)-1-(4-cyclopropoxy-3-fluorophenyl)-1-hydroxy-3-(pyrrolidin-1-yl)propan-2-yl)-2-(4′-fluoro-[1,1′-biphenyl]-4-yl)-2-oxoacetamide] | < 50 nM
O=C(N[C@H](CN1CCCC1)[C@H](O)c1ccc(OC2CC2)c(Cl)c1)C(=O)c1ccc2ccccc2c1 [Compound 209, N-((1R,2R)-1-(3-chloro-4-cyclopropoxyphenyl)-1-hydroxy-3-(pyrrolidin-1-yl)propan-2-yl)-2-(naphthalen-2-yl)-2-oxoacetamide] | < 50 nM
O=C(N[C@H](CN1CCCC1)[C@H](O)c1cc(F)c2c(c1)OCCO2)C(F)(F)c1cccc(Oc2ccc(F)cc2)c1 [Compound 210, 2,2-difluoro-N-((1R,2R)-1-(8-fluoro-2,3-dihydrobenzo[b][1,4]dioxin-6-yl)-1-hydroxy-3-(pyrrolidin-1-yl)propan-2-yl)-2-(3-(4-fluorophenoxy)phenyl)acetamide] | < 50 nM

Results, then the molecule that gave them:

IC50 | SMILES
< 50 nM | O=C(N[C@H](CN1CCC1)[C@H](O)c1cc(F)c2c(c1)OCCO2)/C(=N/O)c1ccc2cc(Cl)ccc2c1 [Compound 191, (E)-N-((1R,2R)-3-(azetidin-1-yl)-1-(8-fluoro-2,3-dihydrobenzo[b][1,4]dioxin-6-yl)-1-hydroxypropan-2-yl)-2-(6-chloronaphthalen-2-yl)-2-(hydroxyimino)acetamide]
< 50 nM | CC(C)(O)COc1ccc([C@@H](O)[C@@H](CN2CCCC2)NC(=O)C(=O)c2ccc(-c3ccc(F)cc3)cc2)cc1Cl [Compound 194, N-((1R,2R)-1-(3-chloro-4-(2-hydroxy-2-methylpropoxy)phenyl)-1-hydroxy-3-(pyrrolidin-1-yl)propan-2-yl)-2-(4′-fluoro-[1,1′-biphenyl]-4-yl)-2-oxoacetamide]
< 50 nM | O=C(N[C@H](CN1CCCC1)[C@H](O)c1ccc2c(c1)OCCO2)C(=O)c1cccc(Oc2ccc(F)cc2)c1 [Compound 197, N-((1R,2R)-1-(2,3-dihydrobenzo[b][1,4]dioxin-6-yl)-1-hydroxy-3-(pyrrolidin-1-yl)propan-2-yl)-2-(3-(4-fluorophenoxy)phenyl)-2-oxoacetamide]
< 50 nM | Cn1ncc2cc(-c3ccc(C(F)(F)C(=O)N[C@H](CN4CCCC4)[C@H](O)c4ccc(OC5CC5)c(Cl)c4)cc3)ccc21 [Compound 202, N-((1R,2R)-1-(3-chloro-4-cyclopropoxyphenyl)-1-hydroxy-3-(pyrrolidin-1-yl)propan-2-yl)-2,2-difluoro-2-(4-(1-methyl-1H-indazol-5-yl)phenyl)acetamide]
< 50 nM | O=C(N[C@H](CN1CCCC1)[C@H](O)c1cc(F)c2c(c1)OCCO2)C(=O)c1cccc(Oc2ccc(F)cc2)c1 [Compound 203, N-((1R,2R)-1-(8-fluoro-2,3-dihydrobenzo[b][1,4]dioxin-6-yl)-1-hydroxy-3-(pyrrolidin-1-yl)propan-2-yl)-2-(3-(4-fluorophenoxy)phenyl)-2-oxoacetamide]
< 50 nM | Cn1ncc2cc(-c3ccc(C(=O)C(=O)N[C@H](CN4CCCC4)[C@H](O)c4ccc(OC5CC5)c(Cl)c4)cc3)ccc21 [Compound 205, N-((1R,2R)-1-(3-chloro-4-cyclopropoxyphenyl)-1-hydroxy-3-(pyrrolidin-1-yl)propan-2-yl)-2-(4-(1-methyl-1H-indazol-5-yl)phenyl)-2-oxoacetamide]
< 50 nM | Cn1ncc2cc(-c3ccc(C(=O)C(=O)N[C@H](CN4CCCC4)[C@H](O)c4ccc5c(c4)OCCO5)cc3)ccc21 [Compound 207, N-((1R,2R)-1-(2,3-dihydrobenzo[b][1,4]dioxin-6-yl)-1-hydroxy-3-(pyrrolidin-1-yl)propan-2-yl)-2-(4-(1-methyl-1H-indazol-5-yl)phenyl)-2-oxoacetamide]
